Measured values as given in patent US10870647B2, “Imidazopyridine derivative, method for preparing same, and pharmaceutical composition containing same as active ingredient for preventing or treating cancer” (DAEGU-GYEONGBUK MEDICAL INNOVATION FOUNDATION, priority 2016, dated 2020).

How the values were obtained:
Assay in all cases: Kinase selectivity, scanMAX Kinase assay panel (DiscoverX), % control at 1 uM
Type in all cases: binding
[1] = biological target: T1, scanMAX Kinase assay panel (Homo sapiens, UniProt P04629); conditions: TRKA; 1 uM; read-out: Percent Control (%)
T1 construct: purchased DiscoverX
Outline: (§1)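 Read-out is percent of control, derived from the signal with compound relative to positive and negative controls: (compound − positive)/(negative − positive) × 100. Each enzyme received test drug at 1 uM in DMSO, and values under 35% count as active.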

[2] = biological target: T2, scanMAX Kinase assay panel (Homo sapiens, UniProt P28482); conditions: ERK2; 1 uM; read-out: Percent Control (%)
T2 construct: purchased DiscoverX
Outline: as §1

[3] = biological target: T3, scanMAX Kinase assay panel (Homo sapiens, UniProt Q9P1W9); conditions: PIM2; 1 uM; read-out: Percent Control (%)
T3 construct: purchased DiscoverX
Outline: as §1

[4] = biological target: T4, scanMAX Kinase assay panel (Homo sapiens, UniProt Q8IVH8); conditions: MAP4K3; 1 uM; read-out: Percent Control (%)
T4 construct: purchased DiscoverX
T4 sequence (Q8IVH8 1-894): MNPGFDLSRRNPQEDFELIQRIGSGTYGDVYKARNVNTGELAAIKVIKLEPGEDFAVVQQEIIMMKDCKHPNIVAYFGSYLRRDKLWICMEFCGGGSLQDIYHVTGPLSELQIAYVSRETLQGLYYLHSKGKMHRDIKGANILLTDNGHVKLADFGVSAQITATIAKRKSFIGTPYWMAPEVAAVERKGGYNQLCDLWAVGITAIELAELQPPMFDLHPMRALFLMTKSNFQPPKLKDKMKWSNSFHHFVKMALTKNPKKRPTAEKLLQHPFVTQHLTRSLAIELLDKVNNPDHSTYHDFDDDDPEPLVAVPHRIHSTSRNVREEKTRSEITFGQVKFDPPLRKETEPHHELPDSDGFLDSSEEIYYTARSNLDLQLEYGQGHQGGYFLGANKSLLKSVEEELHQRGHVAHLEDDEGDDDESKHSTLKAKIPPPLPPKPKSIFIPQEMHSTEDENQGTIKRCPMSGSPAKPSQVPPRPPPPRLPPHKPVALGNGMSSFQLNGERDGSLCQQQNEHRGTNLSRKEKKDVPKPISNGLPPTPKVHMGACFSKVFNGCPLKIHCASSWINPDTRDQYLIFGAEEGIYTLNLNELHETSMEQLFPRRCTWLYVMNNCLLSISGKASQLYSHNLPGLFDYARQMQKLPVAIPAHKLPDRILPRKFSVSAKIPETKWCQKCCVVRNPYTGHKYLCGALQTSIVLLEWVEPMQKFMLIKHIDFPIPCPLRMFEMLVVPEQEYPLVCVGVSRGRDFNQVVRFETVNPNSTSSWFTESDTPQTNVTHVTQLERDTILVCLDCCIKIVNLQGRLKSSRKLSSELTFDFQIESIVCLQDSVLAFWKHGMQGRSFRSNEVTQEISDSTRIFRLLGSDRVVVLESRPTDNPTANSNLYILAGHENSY
Outline: as §1

[5] = biological target: T5, scanMAX Kinase assay panel (Homo sapiens, UniProt P11309); conditions: PIM1; 1 uM; read-out: Percent Control (%)
T5 construct: purchased DiscoverX
Outline: as §1

[6] = biological target: T6, scanMAX Kinase assay panel (Homo sapiens, UniProt Q13546); conditions: RIPK1; 1 uM; read-out: Percent Control (%)
T6 construct: purchased DiscoverX
T6 sequence (Q13546 1-671): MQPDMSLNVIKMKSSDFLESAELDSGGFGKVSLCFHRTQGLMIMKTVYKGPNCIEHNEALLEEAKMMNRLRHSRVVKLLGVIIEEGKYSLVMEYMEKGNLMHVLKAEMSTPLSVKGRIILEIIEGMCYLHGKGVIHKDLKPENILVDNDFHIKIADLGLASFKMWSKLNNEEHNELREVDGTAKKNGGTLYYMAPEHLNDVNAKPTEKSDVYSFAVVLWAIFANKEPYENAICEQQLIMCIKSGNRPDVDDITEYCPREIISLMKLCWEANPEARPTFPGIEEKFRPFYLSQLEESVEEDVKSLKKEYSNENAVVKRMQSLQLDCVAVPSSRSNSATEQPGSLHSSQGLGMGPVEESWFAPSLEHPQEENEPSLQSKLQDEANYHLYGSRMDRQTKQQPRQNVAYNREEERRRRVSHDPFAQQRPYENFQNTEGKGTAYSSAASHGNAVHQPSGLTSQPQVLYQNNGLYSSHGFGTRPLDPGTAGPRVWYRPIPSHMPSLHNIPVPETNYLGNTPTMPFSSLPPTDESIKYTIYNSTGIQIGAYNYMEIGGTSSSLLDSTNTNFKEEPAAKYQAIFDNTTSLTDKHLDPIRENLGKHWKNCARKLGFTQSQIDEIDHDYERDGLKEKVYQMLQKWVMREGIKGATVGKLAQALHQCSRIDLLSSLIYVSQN
Outline: as §1

[7] = biological target: T7, scanMAX Kinase assay panel (Homo sapiens, UniProt Q09013); conditions: DMPK; 1 uM; read-out: Percent Control (%)
T7 construct: purchased DiscoverX
T7 sequence (Q09013 1-629): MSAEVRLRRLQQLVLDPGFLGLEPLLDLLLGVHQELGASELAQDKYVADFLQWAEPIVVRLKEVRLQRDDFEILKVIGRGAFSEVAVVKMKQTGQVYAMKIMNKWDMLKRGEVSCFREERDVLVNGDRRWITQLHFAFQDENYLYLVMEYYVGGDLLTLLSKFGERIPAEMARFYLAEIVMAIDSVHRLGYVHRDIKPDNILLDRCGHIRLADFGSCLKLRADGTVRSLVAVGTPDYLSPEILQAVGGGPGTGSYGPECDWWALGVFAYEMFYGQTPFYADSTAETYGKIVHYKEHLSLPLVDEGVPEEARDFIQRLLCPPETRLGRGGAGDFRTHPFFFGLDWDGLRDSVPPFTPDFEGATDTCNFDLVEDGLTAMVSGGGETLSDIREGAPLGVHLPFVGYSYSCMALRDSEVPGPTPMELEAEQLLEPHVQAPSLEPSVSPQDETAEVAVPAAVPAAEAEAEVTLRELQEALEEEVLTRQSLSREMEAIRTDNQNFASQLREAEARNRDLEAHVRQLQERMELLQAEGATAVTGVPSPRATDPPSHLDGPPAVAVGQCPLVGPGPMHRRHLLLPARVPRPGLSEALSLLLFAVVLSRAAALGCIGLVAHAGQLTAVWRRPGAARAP
Outline: as §1

T3 sequence (Q9P1W9 whole entry): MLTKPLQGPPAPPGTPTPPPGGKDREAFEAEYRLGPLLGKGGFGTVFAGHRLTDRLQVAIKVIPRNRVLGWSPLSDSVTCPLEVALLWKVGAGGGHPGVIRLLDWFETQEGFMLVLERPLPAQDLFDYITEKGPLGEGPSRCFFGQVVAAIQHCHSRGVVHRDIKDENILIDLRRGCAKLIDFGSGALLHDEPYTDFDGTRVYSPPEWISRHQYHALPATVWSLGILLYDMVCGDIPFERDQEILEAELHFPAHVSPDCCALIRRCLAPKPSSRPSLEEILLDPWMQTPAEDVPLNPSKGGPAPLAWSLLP
T1 sequence (P04629 33-796): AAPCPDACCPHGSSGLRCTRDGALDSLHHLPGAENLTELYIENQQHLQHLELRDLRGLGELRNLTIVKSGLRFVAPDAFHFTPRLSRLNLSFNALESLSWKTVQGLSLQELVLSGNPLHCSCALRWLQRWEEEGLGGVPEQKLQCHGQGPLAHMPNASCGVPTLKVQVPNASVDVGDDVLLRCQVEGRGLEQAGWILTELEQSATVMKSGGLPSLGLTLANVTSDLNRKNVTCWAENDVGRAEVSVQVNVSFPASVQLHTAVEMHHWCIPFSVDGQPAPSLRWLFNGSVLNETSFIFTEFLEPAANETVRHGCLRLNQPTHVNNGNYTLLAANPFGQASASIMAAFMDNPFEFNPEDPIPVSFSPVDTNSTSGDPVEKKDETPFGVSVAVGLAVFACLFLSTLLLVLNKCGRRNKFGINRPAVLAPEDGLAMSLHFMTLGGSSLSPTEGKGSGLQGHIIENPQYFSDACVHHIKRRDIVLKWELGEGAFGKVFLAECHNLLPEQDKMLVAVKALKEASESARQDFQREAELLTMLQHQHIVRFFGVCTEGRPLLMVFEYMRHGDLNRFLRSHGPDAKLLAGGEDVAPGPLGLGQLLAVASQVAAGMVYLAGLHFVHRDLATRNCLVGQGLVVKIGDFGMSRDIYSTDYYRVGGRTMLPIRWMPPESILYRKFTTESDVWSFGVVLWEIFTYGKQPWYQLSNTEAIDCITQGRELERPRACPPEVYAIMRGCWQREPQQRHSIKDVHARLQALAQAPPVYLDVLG
T5 sequence (P11309 whole entry): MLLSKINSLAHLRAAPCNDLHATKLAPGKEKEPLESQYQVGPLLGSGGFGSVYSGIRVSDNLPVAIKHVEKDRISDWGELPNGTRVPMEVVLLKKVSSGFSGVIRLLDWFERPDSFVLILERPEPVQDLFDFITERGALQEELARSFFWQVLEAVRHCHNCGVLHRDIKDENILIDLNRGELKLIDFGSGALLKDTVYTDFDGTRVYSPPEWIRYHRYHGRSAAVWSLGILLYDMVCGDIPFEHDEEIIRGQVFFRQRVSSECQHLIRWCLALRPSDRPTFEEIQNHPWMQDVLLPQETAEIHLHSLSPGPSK
T2 sequence (P28482 whole entry): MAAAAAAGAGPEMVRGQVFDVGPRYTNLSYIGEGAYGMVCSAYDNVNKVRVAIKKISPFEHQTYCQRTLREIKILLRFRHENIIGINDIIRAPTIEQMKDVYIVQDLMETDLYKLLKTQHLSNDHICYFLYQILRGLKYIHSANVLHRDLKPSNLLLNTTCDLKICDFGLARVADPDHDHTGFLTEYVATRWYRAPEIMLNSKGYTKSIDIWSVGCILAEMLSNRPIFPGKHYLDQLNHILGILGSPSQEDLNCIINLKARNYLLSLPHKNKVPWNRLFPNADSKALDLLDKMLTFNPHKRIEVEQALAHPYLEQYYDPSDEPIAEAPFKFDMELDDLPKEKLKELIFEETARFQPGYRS

Cc1ccc(C(=O)Nc2ccc(CN3CCN(C)CC3)c(C(F)(F)F)c2)cc1C#Cc1cnc2c(Nc3cnn(C)c3)cccn12 [Example 1, 4-methyl-3-((8-((1-methyl-1H-pyrazol-4-yl)amino)imidazo[1,2-a]pyridin-3-yl)ethynyl)-N-(4-((4-methylpiperazin-1-yl)methyl)-3-(trifluoromethyl)phenyl)benzamide]
remaining binding at 1 µM [1]: 0% | remaining binding at 1 µM [2]: 100% | remaining binding at 1 µM [3]: 100% | remaining binding at 1 µM [4]: 25% | remaining binding at 1 µM [5]: 82% | remaining binding at 1 µM [6]: 0% | remaining binding at 1 µM [7]: 100%

Cc1cn(-c2cc(NC(=O)c3ccc(C)c(C#Cc4cnc5c(Nc6cnn(C)c6)cccn45)c3)cc(C(F)(F)F)c2)cn1 [Example 12, 4-methyl-N-(3-(4-methyl-1H-imidazol-1-yl)-5-(trifluoromethyl)phenyl)-3-((8-((1-methyl-1H-pyrazol-4-yl)amino)imidazo[1,2-a]pyridin-3-yl)ethynyl)benzamide]
remaining binding at 1 µM [1]: 1% | remaining binding at 1 µM [2]: 92% | remaining binding at 1 µM [3]: 91% | remaining binding at 1 µM [4]: 66% | remaining binding at 1 µM [5]: 92% | remaining binding at 1 µM [6]: 5% | remaining binding at 1 µM [7]: 96%

Cc1ccc(NC(=O)C2(C(=O)Nc3ccc(F)cc3)CC2)cc1C#Cc1cnc2c(Nc3cnn(C(C)C)c3)cccn12 [Example 78]
remaining binding at 1 µM [1]: 100% | remaining binding at 1 µM [2]: 100% | remaining binding at 1 µM [3]: 100% | remaining binding at 1 µM [4]: 100% | remaining binding at 1 µM [5]: 100% | remaining binding at 1 µM [6]: 19% | remaining binding at 1 µM [7]: 92%
